From patent US20030153030A1, “Enzyme-catalyzed modification of substances in biological mixtures” (priority 1999, published 2003)

What was measured:
MSCP5 cells = assay: Prostaglandin synthesis/release in 14C-arachidonic acid-marked skin keratinocytes; type: cell-based, Murine; settings: NS398 10 μM, positive control, 2 hours incubation
Method: FIG. 1 is a schematic illustration of the effects of salicin and salicin esters on the release of prostaglandin in keratinocytes. The average value of three measuring points is shown. In FIG. 1, 1=negative control, 2=salicin, 3=phenyl propionyl salicin, 4=p-OH-phenyl acetyl salicin and 5=positive control.
Murine (MSCP5) and human (HPKII) skin keratinocytes were marked for 16 hours with 0.2 μCi ^14C-arachidonic acid/ml medium. Salicin, phenylpropionyl salicin and p-OH-phenylacetyl salicin in fresh medium were added in increasing concentrations as test substances and incubated for 2 hours. In the positive control NS398 (10 μM) for MSCP5 cells, prostaglandin synthesis is reduced by 85%. The prostaglandins were identified by comparison with reference substances and quantified by radiodensitometry. MSCP5: 100%=201 cpm; HPKII: 100%=63 cpm.

[1] = Activity of salicin derivative as opposed to salicin; settings: modified versus unmodified salicin

## CS(=O)(=O)Nc1ccc([N+](=O)[O-])cc1OC1CCCCC1 [NS398]
MSCP5 cells
  prostaglandin synthesis is reduced by: 85%

## O=C(Cc1ccc(O)cc1)OCC1OC(Oc2ccccc2CO)C(O)C(O)C1O (centres unmarked) [p-OH-phenyl acetoyl salicin, p-OH-phenylacetyl salicin]
[1]
  improvement of activity as opposed to salicin: improvements are also shown
